Laboratory results taken from ChEMBL document CHEMBL1681632, “2-(4-carbonylphenyl)benzoxazole inhibitors of CETP: scaffold design and advancement in HDLc-raising efficacy” (Bioorg Med Chem Lett, 2011).

Columns and labels:
[1] = biological target: T1, Cholesteryl ester transfer protein (Homo sapiens, UniProt P11597); assay: Inhibition of CETP
T1 sequence (P11597 whole entry): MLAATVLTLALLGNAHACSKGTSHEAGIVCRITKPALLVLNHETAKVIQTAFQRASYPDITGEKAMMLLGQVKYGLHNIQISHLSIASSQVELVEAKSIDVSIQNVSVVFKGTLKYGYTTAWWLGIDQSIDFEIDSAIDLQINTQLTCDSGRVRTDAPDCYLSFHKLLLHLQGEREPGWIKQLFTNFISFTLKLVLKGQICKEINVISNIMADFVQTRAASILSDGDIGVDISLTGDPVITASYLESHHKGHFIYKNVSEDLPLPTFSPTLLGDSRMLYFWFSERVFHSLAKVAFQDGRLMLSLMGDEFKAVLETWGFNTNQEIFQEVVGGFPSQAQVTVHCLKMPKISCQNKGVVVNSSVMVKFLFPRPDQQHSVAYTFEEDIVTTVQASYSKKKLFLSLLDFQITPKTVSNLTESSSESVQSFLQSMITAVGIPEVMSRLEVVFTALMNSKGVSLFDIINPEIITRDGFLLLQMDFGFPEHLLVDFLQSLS

Mus musculus = assay: Antiatherogenic activity in transgenic mouse PD model assessed as rise in HDL-cholesterol level at 10 mg/kg; type: functional

Structure (SMILES)	IC50 [1] [nM]	Activity (Mus musculus) [mg/dL]
Cc1cc(C#N)cc2nc(-c3ccc(C(=O)NCCC4CCN(c5ccc(C(F)(F)F)cc5)CC4)cc3)oc12	11600	
CC(C)COc1ccccc1-c1ccc(N2CCC(CNC(=O)c3ccc(-c4nc5cc(C#N)cc(C(C)C)c5o4)cc3)CC2)nc1	31	
CC(C)c1cc(C#N)cc2nc(-c3ccc(C(=O)NCC4CCN(c5ccc(-c6ccccc6)cn5)CC4)cc3)oc12	43	22
COc1cc(F)c(C(C)C)cc1-c1ccc(N2CCC(CNC(=O)c3ccc(-c4nc5cc(C#N)cc(C(C)C)c5o4)cc3)CC2)nc1	24	
N#Cc1cc(C2CC2)c2oc(-c3ccc(C(=O)NCC4CCN(c5ccc(C(F)(F)F)cn5)CC4)cc3)nc2c1	243	
CC(C)c1cc(C#N)cc2nc(-c3ccc(C(=O)NCC4CCN(c5ccc([N+](=O)[O-])cn5)CC4)cc3)oc12	> 10000	
COC(=O)c1cccc(N2CCC(CNC(=O)c3ccc(-c4nc5cc(C#N)cc(C(C)C)c5o4)cc3)CC2)n1	306	
CC(C)Oc1ccc(F)cc1-c1ccc(N2CCC(CNC(=O)c3ccc(-c4nc5cc(C#N)cc(C(C)C)c5o4)cc3)CC2)nc1	13	24
CC(C)c1ccccc1-c1ccc(N2CCC(CNC(=O)c3ccc(-c4nc5cc(C#N)cc(C(C)C)c5o4)cc3)CC2)nc1	19	
CC(C)Oc1ccccc1-c1ccc(N2CCC(CNC(=O)c3ccc(-c4nc5cc(C#N)cc(C(C)C)c5o4)cc3)CC2)nc1	29	
CC(C)c1cc(C#N)cc2nc(-c3ccc(C(=O)NCC4CCN(c5cc(C(F)(F)F)ccn5)CC4)cc3)oc12	61	
Cc1cc(C#N)cc2nc(-c3ccc(OCCN4CCN(c5ccc(C(F)(F)F)cc5)CC4)cc3)oc12	4550	
COC(Cc1ccc(-c2nc3cc(C#N)cc(C)c3o2)cc1)CN1CCN(c2ccc(C(F)(F)F)cc2)CC1 (stereo not given)	8940	
Cc1cc(C#N)cc2nc(-c3ccc(C(=O)CCN4CCN(c5ccc(C(F)(F)F)cc5)CC4)cc3)oc12	2050	
Cc1cc(C#N)cc2nc(-c3ccc(NC(=O)CN4CCN(c5ccc(C(F)(F)F)cn5)CC4)cc3)oc12	15	21
Cc1cc(C#N)cc2nc(-c3ccc(C(=O)NCC4CCN(c5ccc(C(F)(F)F)cc5)CC4)cc3)oc12	300	
Cc1cc(C#N)cc2nc(-c3ccc(NCC(O)CN4CCN(c5ccc(C(F)(F)F)cc5)CC4)cc3)oc12 (stereo not given)	18800	
CC(C)c1cc(C#N)cc2nc(-c3ccc(C(=O)NCC4CCN(c5ccc(-c6cc(C(F)(F)F)ccc6OCc6ccccc6)cn5)CC4)cc3)oc12	413	
Cc1ccc(-c2ccc(N3CCC(CNC(=O)c4ccc(-c5nc6cc(C#N)cc(C(C)C)c6o5)cc4)CC3)nc2)cc1	48	
CC(C)c1cc(C#N)cc2nc(-c3ccc(C(=O)NCC4CCN(c5nccc(C(F)(F)F)n5)CC4)cc3)oc12	22	7
Cc1cccc(-c2ccc(N3CCC(CNC(=O)c4ccc(-c5nc6cc(C#N)cc(C(C)C)c6o5)cc4)CC3)nc2)c1	39	
CC(C)c1cc(C#N)cc2nc(-c3ccc(C(=O)NCC4CCN(c5ccc(C(F)(F)F)cn5)CC4)cc3)oc12	40	16

Structure (SMILES)	IC50 [1] [nM]	Activity (Mus musculus) [mg/dL]
CC(C)c1cc(C#N)cc2nc(-c3ccc(C(=O)NCC4CCN(c5cccc(C(=O)O)n5)CC4)cc3)oc12	> 10000	
CC(C)c1cc(C#N)cc2nc(-c3ccc(C(=O)NCC4CCN(c5ccc(Br)cn5)CC4)cc3)oc12	223	
Cc1cc(C#N)cc2nc(-c3ccc(C(=O)N4CCN(c5ccc(C(F)(F)F)cc5)CC4)cc3)oc12	4030	
C=C(C)c1ccc(N2CCC(CNC(=O)c3ccc(-c4nc5cc(C#N)cc(C(C)C)c5o4)cc3)CC2)nc1	229	
Cc1cc(C#N)cc2nc(-c3ccc(N4CCC(N5CCN(c6ccc(C(F)(F)F)cc6)CC5)C4=O)cc3)oc12 (stereo not given)	2740	
Cc1cc(C#N)cc2nc(-c3ccc(CC(O)CN4CCN(c5ccc(C(F)(F)F)cc5)CC4)cc3)oc12 (stereo not given)	874	
Cc1cc(C#N)cc2nc(-c3ccc(CCCN4CCN(c5ccc(C(F)(F)F)cc5)CC4)cc3)oc12	975	
N#Cc1cc(C(F)(F)F)c2oc(-c3ccc(C(=O)NCC4CCN(c5ccc(C(F)(F)F)cn5)CC4)cc3)nc2c1	3190	
Cc1cc(C#N)cc2nc(-c3ccc(C#CCN4CCN(c5ccc(C(F)(F)F)cc5)CC4)cc3)oc12	2170	
Cc1cc(C#N)cc2nc(-c3ccc(C(=O)N(C)CC4CCN(c5ccc(C(F)(F)F)cc5)CC4)cc3)oc12	2610	
Cc1cc(C#N)cc2nc(-c3ccc(NC(=O)CN4CCN(c5ccc(C(F)(F)F)cc5)CC4)cc3)oc12		24
Cc1cc(C#N)cc2nc(-c3ccc(CC(=O)CN4CCN(c5ccc(C(F)(F)F)cc5)CC4)cc3)oc12	5740	
Cc1ccc(OC(C)C)c(-c2ccc(N3CCC(CNC(=O)c4ccc(-c5nc6cc(C#N)cc(C(C)C)c6o5)cc4)CC3)nc2)c1	22	28
COC(=O)c1ccc(N2CCC(CNC(=O)c3ccc(-c4nc5cc(C#N)cc(C(C)C)c5o4)cc3)CC2)nc1	114	
C=C(C)c1cc(C#N)cc2nc(-c3ccc(C(=O)NCC4CCN(c5ccc(C(F)(F)F)cn5)CC4)cc3)oc12	131	
CC(C)c1cc(C#N)cc2nc(-c3ccc(C(=O)NCC4CCN(c5cccc(C(F)(F)F)n5)CC4)cc3)oc12	37	
CC(C)(C)c1cc(C#N)cc2nc(-c3ccc(C(=O)NCC4CCN(c5ccc(C(F)(F)F)cn5)CC4)cc3)oc12	198	
COc1cccc(N2CCC(CNC(=O)c3ccc(-c4nc5cc(C#N)cc(C(C)C)c5o4)cc3)CC2)n1	110	
CC(C)c1cc(C#N)cc2nc(-c3ccc(C(=O)NCC4CCN(c5ccccn5)CC4)cc3)oc12	114	
CC(C)Oc1ccc(C(F)(F)F)cc1-c1ccc(N2CCC(CNC(=O)c3ccc(-c4nc5cc(C#N)cc(C(C)C)c5o4)cc3)CC2)nc1	28	
COc1cccc(Cl)c1-c1ccc(N2CCC(CNC(=O)c3ccc(-c4nc5cc(C#N)cc(C(C)C)c5o4)cc3)CC2)nc1	47	
Cc1cc(C#N)cc2nc(-c3ccc(C(O)CCN4CCN(c5ccc(C(F)(F)F)cc5)CC4)cc3)oc12 (stereo not given)	2250	
